Test results: ChEMBL document CHEMBL1671786, “Probes for narcotic receptor mediated phenomena. 41. Unusual inverse μ-agonists and potent μ-opioid antagonists by modification of the N-substituent in enantiomeric 5-(3-hydroxyphenyl)morphans” (J Med Chem, 2011)

Key:
Mu-type opioid receptor [1] = target: T1, Mu-type opioid receptor (Homo sapiens, UniProt P35372); assay: Binding affinity to mu opioid receptor
Mu-type opioid receptor [2] = target: T1, Mu-type opioid receptor; assay: Displacement of [125I]IOXY from human recombinant mu opioid receptor expressed in CHO cells; type: cell-based
[3] = target: Delta-type opioid receptor (Homo sapiens, UniProt P41143); assay: Displacement of [125I]IOXY from human recombinant delta opioid receptor expressed in CHO cells; type: cell-based
Delta-type opioid receptor, sequence (P41143 whole entry): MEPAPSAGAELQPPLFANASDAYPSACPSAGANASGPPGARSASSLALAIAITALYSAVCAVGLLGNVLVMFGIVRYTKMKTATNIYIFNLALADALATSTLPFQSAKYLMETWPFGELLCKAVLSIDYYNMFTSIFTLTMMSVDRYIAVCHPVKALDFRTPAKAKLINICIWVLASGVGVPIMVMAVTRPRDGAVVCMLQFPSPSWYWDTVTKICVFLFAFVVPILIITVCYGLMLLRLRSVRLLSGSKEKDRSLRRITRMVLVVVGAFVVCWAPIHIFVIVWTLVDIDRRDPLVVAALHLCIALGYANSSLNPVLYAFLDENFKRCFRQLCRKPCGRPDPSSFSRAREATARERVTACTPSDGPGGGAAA

[4] = target: Kappa-type opioid receptor (Homo sapiens, UniProt P41145); assay: Displacement of [125I]IOXY from human recombinant kappa opioid receptor expressed in CHO cells; type: cell-based
Kappa-type opioid receptor, sequence (P41145 whole entry): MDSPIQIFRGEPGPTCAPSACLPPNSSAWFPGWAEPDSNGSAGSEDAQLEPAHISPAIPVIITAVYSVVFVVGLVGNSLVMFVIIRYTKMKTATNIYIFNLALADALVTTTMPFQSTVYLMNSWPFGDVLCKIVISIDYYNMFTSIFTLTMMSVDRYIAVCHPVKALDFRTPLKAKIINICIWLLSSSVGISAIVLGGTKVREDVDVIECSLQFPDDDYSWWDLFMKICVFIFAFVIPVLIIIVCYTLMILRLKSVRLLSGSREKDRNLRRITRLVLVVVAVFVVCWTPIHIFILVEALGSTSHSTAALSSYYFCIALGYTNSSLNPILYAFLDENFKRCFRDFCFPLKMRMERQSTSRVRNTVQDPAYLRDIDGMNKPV

Mu-type opioid receptor [5] = target: T1, Mu-type opioid receptor
Description: Inverse agonist activity at mu opioid receptor by [35S]GTPgammaS binding assay

T1 sequence (P35372 whole entry): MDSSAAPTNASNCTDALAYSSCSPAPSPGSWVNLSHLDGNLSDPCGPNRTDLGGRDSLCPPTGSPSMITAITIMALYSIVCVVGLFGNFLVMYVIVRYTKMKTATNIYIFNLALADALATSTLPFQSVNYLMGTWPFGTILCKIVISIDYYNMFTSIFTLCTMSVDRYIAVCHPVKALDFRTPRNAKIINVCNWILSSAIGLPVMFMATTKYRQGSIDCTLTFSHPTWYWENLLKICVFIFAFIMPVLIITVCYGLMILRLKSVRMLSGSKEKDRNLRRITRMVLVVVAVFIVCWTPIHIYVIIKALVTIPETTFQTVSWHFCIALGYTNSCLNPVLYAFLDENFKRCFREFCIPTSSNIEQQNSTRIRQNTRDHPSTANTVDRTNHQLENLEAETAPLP

SMILES | Ki (Mu-type opioid receptor [1]) [nM] | Ki (Mu-type opioid receptor [2]) [nM] | Ki [3] [nM] | Ki [4] [nM] | Ke (Mu-type opioid receptor [5]) [nM]
C[C@H]1CN(CC2CC2c2ccccc2)CC[C@@]1(C)c1cccc(O)c1 (some centres undefined) | 1.75 |  |  |  | 
Oc1cccc([C@@]23CCC[C@@H](C2)N(C[C@H]2C[C@H]2c2ccccc2)CC3)c1 |  | 459 | 1980 | 475 | 33
Oc1cccc([C@@]23CCC[C@@H](C2)N(C[C@H]2C[C@@H]2c2ccccc2)CC3)c1 |  | 3 | 165 | 72 | 0.17
Oc1cccc([C@]23CCC[C@H](C2)N(C[C@H]2C[C@@H]2c2ccccc2)CC3)c1 |  | 16 | 183 | 323 | 2.2
Oc1cccc([C@@]23CCC[C@@H](C2)N(C/C=C\c2ccccc2)CC3)c1 (single isomer, unassigned) |  | 14 | 359 | 367 | 7.7
Oc1cccc([C@@]23CCC[C@@H](C2)N(C[C@@H]2C[C@H]2c2ccccc2)CC3)c1 |  | 4 | 200 | 210 | 0.31
Oc1cccc([C@@]23CCC[C@@H](C2)N(C[C@@H]2C[C@@H]2c2ccccc2)CC3)c1 |  | 11 | 196 | 322 | 8.2
Oc1cccc(C23CCCC(C2)N(C/C=C/c2ccccc2)CC3)c1 (single isomer, unassigned; (+)) [listing 1 of 2 here] |  |  |  |  | 0.58
Oc1cccc([C@]23CCC[C@H](C2)N(C/C=C\c2ccccc2)CC3)c1 (single isomer, unassigned) |  | 26 | 454 | 123 | 3.1
Oc1cccc(C23CCCC(C2)N(C/C=C/c2ccccc2)CC3)c1 (single isomer, unassigned; (+)) [listing 2 of 2 here] |  | 2 | 138 | 125 | 
Oc1cccc(C23CCCC(C2)N(C/C=C/c2ccccc2)CC3)c1 (single isomer, unassigned; (-)) [listing 1 of 2 here] |  | 6 | 152 | 225 | 
Oc1cccc([C@]23CCC[C@H](C2)N(C[C@H]2C[C@H]2c2ccccc2)CC3)c1 |  | 76 | 547 | 174 | 18
Oc1cccc(C23CCCC(C2)N(C/C=C/c2ccccc2)CC3)c1 (single isomer, unassigned; (-)) [listing 2 of 2 here] |  |  |  |  | 6.6
Oc1cccc([C@]23CCC[C@H](C2)N(C[C@@H]2C[C@@H]2c2ccccc2)CC3)c1 |  | 265 | 610 | 153 | 8.6
Oc1cccc([C@]23CCC[C@H](C2)N(C[C@@H]2C[C@H]2c2ccccc2)CC3)c1 |  | 47 | 800 | 390 | 9.4
